Experiment [1] concerns the target T1, human σ2 receptor (TMEM97) (Homo sapiens, UniProt Q5BJF2). As to the kind of experiment: biochemical. The format is Expi293 membranes.
The target in experiment [2] is T1, human σ2 receptor (TMEM97). As to the kind of experiment: biochemical. Format: Expi293 membranes. The following applies: read-out: % of control remaining.

pKi: −log10 of the molar value.

T1 sequence (Q5BJF2 whole entry): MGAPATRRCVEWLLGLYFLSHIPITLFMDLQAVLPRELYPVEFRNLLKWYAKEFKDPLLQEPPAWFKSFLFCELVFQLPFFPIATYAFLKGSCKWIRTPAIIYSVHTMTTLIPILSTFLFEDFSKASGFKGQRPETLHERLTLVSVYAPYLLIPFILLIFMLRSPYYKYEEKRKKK

On to `CC1CCN(C2CCC(NC(=O)C(=O)Nc3ccc(C(C)C)cc3)CC2)CC1` (stereo not shown) [ZINC000131303503], for which the pKi (in general, the Ki on a negative log10 scale, so that one unit is a factor of ten) in experiment [1] was 7.83. The remaining activity at 1 µM in experiment [2] stood at 10.7%.

For the compound `N/C(=N\Cc1ccc(F)cc1Br)NCC1CCC1` [ZINC000170908795], the negative-log Ki (pKi) in experiment [1] is 8.17. In addition, in experiment [2], the remaining activity at 1 µM amounted to 0.9%.

For `O=C(CC1CCCC1)NC1CCN(C[C@H](O)C2CCCCC2)CC1` [ZINC000191344346], the pKi in experiment [1] is 7.93. For the same compound, the remaining activity at 1 µM in experiment [2] amounted to 8.7%.

The compound `c1ccc(CSc2cncc(N3CCC[C@H](N4CCCC4)CC3)n2)cc1` [ZINC000301801549] had a pKi in experiment [1] of 7.71. In addition, the remaining activity at 1 µM in experiment [2] was 6.9%.

In the case of `Cc1ccc([C@H]2CCN(CC3(O)CCC3)C2)c(C)c1` [ZINC000348332392], in experiment [1], the pKi was 7.47. Also, in experiment [2], the remaining activity at 1 µM came out at 5.2%.

For `CC(C)(C)[C@@H]1CCN(C[C@@H](O)COCc2ccccc2F)C1` [ZINC000409447221], in experiment [1], the negative-log Ki (pKi) is 8.05. In experiment [2], the remaining activity at 1 µM came out at 9.7%.

Regarding `CCOC(=O)[C@@H](CC)N1CCN(C2CCC(C(C)C)CC2)CC1` (stereo partly shown) [ZINC000440321606], the pKi in experiment [1] was 8.38. For the same compound, the remaining activity at 1 µM in experiment [2] was 11.9%.

As for `C[C@@H](c1ccccc1)[C@@H](O)CN1CCC(c2c[nH]c3ncccc23)CC1` [ZINC000450573233], the pKi in experiment [1] was 8.37. In addition, in experiment [2], the remaining activity at 1 µM is 3.6%.

With `CN(C[C@]1(O)CCN(Cc2ccccc2)C1)C(=O)c1ccc(F)c2ccccc12` [ZINC000480785335], the pKi in experiment [1] was 7.89. Moreover, the remaining activity at 1 µM in experiment [2] amounted to 9.8%.

The compound `Cc1cc(C)c2cc(CN3CCC[C@H](N4CCCC4)CC3)[nH]c2c1` [ZINC000481989921] had a pKi in experiment [1] of 7.67. In addition, the remaining activity at 1 µM in experiment [2] stood at 11.7%.

For `C[C@@H](C(=O)N(C)Cc1cccc(F)c1)N1CC=C(c2c[nH]c3ncccc23)CC1` [ZINC000533478938], the negative logarithm of the Ki (pKi) in experiment [1] was 7.46. Further, in experiment [2], the remaining activity at 1 µM was 2.7%.

`Cc1ccc(CCC2CCN(C(=O)CN3C[C@@H]4CC[C@@H](O)[C@H]4C3)CC2)cc1` [ZINC000544117725]: in experiment [1], the negative-log Ki (pKi) was 8.00. Moreover, the remaining activity at 1 µM in experiment [2] came out at 0%.

For `CC1CCC(O)(CN2CC(Cc3ccc(F)c(F)c3)C2)CC1` (stereo not shown) [ZINC000548355486], the pKi in experiment [1] is 8.62. Moreover, the remaining activity at 1 µM in experiment [2] is 0.4%.

In experiment [1], `Cc1cccc(C)c1OC[C@H](O)CN1CC[C@@H](CC2CC2)C1` [ZINC000559413424] had a pKi of 7.98. Besides, the remaining activity at 1 µM in experiment [2] was 11.9%.

As for `O[C@@H](COCc1ccccc1Cl)CN1CC[C@H](Cc2ccc(F)cc2)C1` [ZINC000605902355], the pKi in experiment [1] is 7.86. The remaining activity at 1 µM in experiment [2] turned out to be 11.5%.

`Cc1ccc(CC2CN(CC3(O)CCSCC3)C2)cc1` [ZINC000656714762] showed a pKi in experiment [1] of 7.17. Also, the remaining activity at 1 µM in experiment [2] is 9.3%.

For the compound `C1CCC([C@@H]2CCN(CCC3CCOCC3)C2)CC1` [ZINC000661577595], the pKi in experiment [1] was 8.76. Further, the remaining activity at 1 µM in experiment [2] worked out at 6.4%.

For `c1ccc(N2CCC(NC[C@@H]3C[C@H]4CCC[C@@H]4O3)CC2)cc1` [ZINC000872109019], the pKi in experiment [1] was 7.83. Moreover, the remaining activity at 1 µM in experiment [2] came to 11.6%.

Turning to `CC(C)(C)[C@@H]1CCN(C[C@@H](O)CC2(O)CCCCC2)C1` [ZINC000878406056], the pKi in experiment [1] was 8.12. Further, the remaining activity at 1 µM in experiment [2] came to 11.8%.

In experiment [1], `CC(C)(NCc1ccc2c(c1)OCCO2)[C@H](O)c1ccccc1` [ZINC000895657866] gave a pKi of 7.67. In experiment [2], the remaining activity at 1 µM is 3%.

On to `O[C@@]1(CNCc2cccc3c2OCC3)CCc2ccccc21` [ZINC000921927365], for which the pKi in experiment [1] is 7.17. In experiment [2], the remaining activity at 1 µM turned out to be 12.5%.

For `C[C@@H](CNC(=O)C(=O)NCc1nnn(C)n1)N(C)Cc1ccccc1` [ZINC001328800283], the remaining activity at 1 µM in experiment [2] is 86.4%.

Take `COc1cccc2c1OC[C@H](NC(=O)C(=O)N[C@@H]1CC(=O)N(C)C1)C2` [ZINC001341791776]: the remaining activity at 1 µM in experiment [2] was found to be 222%.

With `O=C(Nc1ccc2c(=O)[nH]ccc2c1)C(=O)N1C[C@H](CO)[C@@H](O)C1` [ZINC001350153389], the remaining activity at 1 µM in experiment [2] was 93.3%.

For `CN(C[C@H]1CCCN1C)C(=O)[C@]1(C)CC(c2ccccc2Cl)=NO1` [ZINC001362573982], the remaining activity at 1 µM in experiment [2] came out at 94.8%.

Regarding `O=C([C@@H]1CCc2nnc(O)n2C1)N1CC(CNC(=O)C(F)(F)F)C1` [ZINC001363211634], the remaining activity at 1 µM in experiment [2] worked out at 78.6%.

Regarding `O=S(=O)(N[C@@H]1CCc2nnnn2CC1)c1cnc2n1CCCC2` [ZINC001363999416], the remaining activity at 1 µM in experiment [2] worked out at 104%.

For the compound `COC[C@@H](O)CN1CC[C@H](NC(=O)c2c(C)c(C)nn(C)c2=O)C1` [ZINC001365986475], the remaining activity at 1 µM in experiment [2] is 109%.

Consider `O=C(CCn1cccn1)NCCN1CCN(CCn2cccn2)CC1` [ZINC001369886058], for which, in experiment [2], the remaining activity at 1 µM is 111%.

For the compound `CCC1(C(=O)NCC[C@@H]2CCN(Cc3nccn3C)C2)CCCC1` [ZINC001377717241], the remaining activity at 1 µM in experiment [2] was determined as 102%.

Regarding `Cc1ccnc(CN[C@@H](C)CCNC(=O)c2ccn(C(C)C)c2C)n1` [ZINC001381212829], the remaining activity at 1 µM in experiment [2] worked out at 71.1%.

Take `O=C(NCC1CN(CCC2CCCC2)C1)C1(c2cccnc2)CC1` [ZINC001391502525]: the remaining activity at 1 µM in experiment [2] was found to be 43.6%.

For the compound `C[C@@H]1CCC[C@H](CCN(C)CCNC(=O)c2c3c(nn2C)CCC3)C1` [ZINC001399642198], the remaining activity at 1 µM in experiment [2] stood at 21.2%.

As for `COc1ccc(C(=O)N(C)C[C@H](C)NCC2CCC(C)(C)CC2)nn1` [ZINC001403624658], the remaining activity at 1 µM in experiment [2] came to 65.3%.

On to `CC(=O)N[C@@H]1CCN(S(=O)(=O)c2cnn([C@@H]3CCOC3)c2)C1` [ZINC001413380655], for which the remaining activity at 1 µM in experiment [2] worked out at 118%.

Take `CCN1CCCC[C@H]1C(=O)NC[C@@H](O)CNC(=O)c1cnccn1` [ZINC001416718427]: in experiment [2], the remaining activity at 1 µM is 80.5%.

`CC(C)N1CC[C@H](CCNC(=O)c2cc(-c3cccnc3)on2)C1` [ZINC001418905447]: in experiment [2], the remaining activity at 1 µM came out at 130%.

Take `Cc1cc(C)nc(C(=O)NCCC2CCN(CCOC(C)C)CC2)c1` [ZINC001419404744]: the remaining activity at 1 µM in experiment [2] was 19.6%.

As for `COCC1(C(=O)N2CCC[C@@H](N(C)CC[C@H](C)F)C2)CC1` [ZINC001420054689], in experiment [2], the remaining activity at 1 µM was determined as 78.5%.

As to `Cc1cnc(CN2CC[C@@H](CCNC(=O)c3cncs3)C2)s1` [ZINC001437918206], in experiment [2], the remaining activity at 1 µM came out at 103%.

As for `Cc1cc(C)c(/C=C\CN2CCC[C@@H](O)C2)cc1C` [ZINC001474404955], in experiment [2], the remaining activity at 1 µM worked out at 62.3%.

For `O=C(C[C@]1(O)CCCNC1)Nc1cn2cc(Br)ncc2n1` [ZINC001515357045], the remaining activity at 1 µM in experiment [2] was found to be 104%.

With `O=C(OC[C@@H]1CCN1Cc1ccccc1)c1nccc2occc12` [ZINC001525937517], in experiment [2], the remaining activity at 1 µM was determined as 117%.

For the compound `Cc1cccc2c1CCN2C(=O)[C@@H]1CC[C@H]2CCCC[C@@H]2N1` [ZINC001579778746], the remaining activity at 1 µM in experiment [2] worked out at 19.6%.

Take `N[C@H](Cc1ccccn1)C(=O)NCc1ccccc1C(F)(F)F` [ZINC001580410121]: in experiment [2], the remaining activity at 1 µM turned out to be 122%.

For the compound `C[C@@H]1CN(CC(=O)NCCCO[C@@H](C)c2ccccc2)[C@H](C)CCO1` [ZINC001655120594], the remaining activity at 1 µM in experiment [2] was determined as 112%.
